Earlier results in patent publication US4235881A, “Method for producing high potency factor VIII” (priority 1978, dated 1980).

Tested on: Factor VIII
Conditions: hemophiliacs having diminished ability to synthesize Factor VIII

## 1-Deamino-8-D-Arginine Vasopressin [dDAVP]
  ability to synthesize Factor VIII: increased to normal levels
